Experimental data as given in patent US11654196B2, “Dosing regimens for echinocandin class compounds” (priority 2012, dated 2023).
Like-named read-outs stand apart in the source and are kept apart here. *1 amine or outer side, *2 acyl side, *3 side chain or, on linkers, in order; H or OH if unused. Where a SMILES comes first, the peptide text is derived from it. Bridges are numbered along the chain shown (N, C = ends). [ ]: non-standard residue; d: D form. The star is where a group is joined. hTyr(3S-OH,4S-OH,3'-OSO3H) = N[C@H](C(=O)O)[C@H](O)[C@@H](O)c1ccc(O)c(OS(=O)(=O)O)c1; Orn(4R-OH,5R-OH) = O=C([C@H](C[C@@H](O)[C@@H](O)N[*:3])N[*:1])[*:2]; Pro(3S-OH,4S-Me) = C[C@H]1CN[C@H](C(=O)O)[C@H]1O; X1 = CCCCCOc1ccc(-c2cc(-c3ccc(C(=O)*)cc3)no2)cc1; Gln(3R-OH) = NC(=O)C[C@@H](O)[C@H](N)C(=O)O; Hyp = O=C(O)[C@@H]1C[C@@H](O)CN1

Key:
[1] = Pharmacokinetics following intravenous administration in beagle dogs; type: in vivo; settings: 1.4 mg/kg IV slow bolus
Experimental: Echinocandin class compounds were administered to beagle dogs weighing approximately 6-10 kg. Each compound was dosed at 1.4 mg/kg in aqueous saline (with or without 0.5% Tween) over course of 1-10 minutes. […] The dogs were fasted at least 12 hours prior to each dosing and offered food after the 4-hour blood sample was taken; water was withheld for 1 hour prior to and 4 hours following each dosing event. The dose for each animal was based on its most recent body weight. The test article was injected intravenously via a catheter placed in the cephalic vein as a slow bolus.
Blood was collected via the jugular vein. All blood samples (1 mL each) were collected into K3EDTA tubes. Following blood collection, the samples were immediately inverted several times and were held on wet ice pending centrifugation. The samples were centrifuged within 30 minutes of collection under refrigeration (˜5° C. for 10 minutes at 2000 g) to obtain plasma. The plasma was frozen immediately on dry ice after separation. The plasma samples were stored at approximately ˜70° C. until analysis.
Plasma (100 μL) was precipitated with 400 μL of 0.1% formic acid in acetonitrile containing the internal standard (100 ng/mL pneumocandin). The samples were then capped and vortexed for about 30 seconds followed by centrifugation at 14,000 rpm at room temperature for 10 minutes. Following centrifugation 200 μL of supernatant was transferred to plastic autosampler vials containing 200 μL of 0.1% formic acid in water and vortexed. Samples were then analyzed by LCMSMS.
All pharmacokinetic calculations were performed using WinNonlin version 4.1 (Pharsight Corp) by noncompartmental analysis.

[2] = Pharmacokinetics (oral bioavailability) following oral administration in beagle dogs; type: in vivo; set-up: key to Improvement (ratio of % oral bioavailability to saline): NI = no improvement in oral bioavailability in comparison to saline; settings: for % BA in saline: oral about 7-10 mg/kg, formulation 11 (saline)
Experimental: Echinocandin class compounds were administered to beagle dogs weighing approximately 6-10 kg. Each animal received the appropriate prepared test article in a single oral capsule dose at a target dose level of about 7-10 mg/kg. Immediately after dosing, each animal was offered 20 mL-30 mL of water orally (Groups 1-4) or 30 mL of water orally to assist in swallowing the capsule.
Animals were treated and blood samples were drawn and analyzed as provided in Example 1.
The bioavailability of each oral dose formulation was estimated by comparison to intravenous plasma concentration data in dogs from Example 1. The results provided in Table 3 show the oral bioavailability for the echinocandin class compound in saline (formulation 11), and the improvement over saline with the use of a formulation of the invention.

[3] = Mouse, literature values; cited from earlier work
[4] = Rat, literature values; cited from earlier work
[5] = Rabbit, literature values; cited from earlier work
[6] = Man, literature values; cited from earlier work

Structure (SMILES) | AUC [1] [ng·h/mL] | Cmax [1] [ng/mL] | Mean clearance [1] [mL/min/kg] | T1/2 [1] [h] | Volume of Distribution [1] [L/kg] | % BA in saline [2] [%] | Improvement (ratio of % oral bioavailability to saline) ([2]; oral, formulation 1) | Improvement (ratio of % oral bioavailability to saline) ([2]; oral, formulation 5) | % BA ([2]; oral, formulation 1) | Improvement (ratio of % oral bioavailability to saline) ([2]; oral, formulation 7) | Improvement (ratio of % oral bioavailability to saline) ([2]; oral, formulation 6) | Improvement (ratio of % oral bioavailability to saline) ([2]; oral, formulation 3) | Half-life [3] [h] | Half-life [4] [h] | Half-life [5] [h] | Half-life [6] [h]
CCCCCOc1ccc(-c2ccc(-c3ccc(C(=O)NC4CC(O)C(OCCOCCOC)NC(=O)C5C(O)C(C)CN5C(=O)C(C(C)O)NC(=O)C(C(O)C(O)c5ccc(O)cc5)NC(=O)C5CC(O)CN5C(=O)C(C(C)O)NC4=O)cc3)cc2)cc1 (centres unmarked) [Compound 19] | 96100 | 7700 | 0.202 | 18.9 | 0.331 | 5.74 | NI | NI |  |  |  |  |  |  |  | 
CCCCCOc1ccc(-c2ccc(-c3ccc(C(=O)NC4CC(O)C(OCCOCCO)NC(=O)C5C(O)C(C)CN5C(=O)C(C(C)O)NC(=O)C(C(O)C(O)c5ccc(O)cc5)NC(=O)C5CC(O)CN5C(=O)C(C(C)O)NC4=O)cc3)cc2)cc1 (centres unmarked) [Compound 21] | 113000 | 6740 | 0.145 | 28.9 | 0.361 | 4.70 | 1.3 | NI | (6.42%) | NI |  |  |  |  |  | 
CCCCCOc1ccc(-c2ccc(-c3ccc(C(=O)NC4CC(O)C(OCCOCCN)NC(=O)C5C(O)C(C)CN5C(=O)C(C(C)O)NC(=O)C(C(O)C(O)c5ccc(O)cc5)NC(=O)C5CC(O)CN5C(=O)C(C(C)O)NC4=O)cc3)cc2)cc1 (centres unmarked) [Compound 26] | 67167 | 4080 | 0.219 | 33.7 | 0.627 |  |  | NI |  | NI | NI |  |  |  |  | 
CCCCCOc1ccc(-c2ccc(-c3ccc(C(=O)NC4CC(O)C(NCC[N+](C)(C)C)NC(=O)C5C(O)C(C)CN5C(=O)C(C(C)O)NC(=O)C(C(O)C(O)c5ccc(O)cc5)NC(=O)C5CC(O)CN5C(=O)C(C(C)O)NC4=O)cc3)cc2)cc1 (centres unmarked) [Compound 37] | 46200 | 2660 | 0.365 | 27.6 | 0.874 |  | NI | NI |  | NI |  | NI |  |  |  | 
CCCCCOc1ccc(-c2ccc(-c3ccc(C(=O)NC4CC(O)C(NCCNCCO)NC(=O)C5C(O)C(C)CN5C(=O)C(C(C)O)NC(=O)C(C(O)C(O)c5ccc(O)cc5)NC(=O)C5CC(O)CN5C(=O)C(C(C)O)NC4=O)cc3)cc2)cc1 (centres unmarked) [Compound 39] | 50800 | 3630 | 0.377 | 21.0 | 0.687 | 5.15 | NI | NI |  |  |  |  |  |  |  | 
CCCCCOc1ccc(-c2cc(-c3ccc(C(=O)N[C@H]4C[C@@H](O)[C@@H](O)NC(=O)[C@@H]5[C@@H](O)[C@@H](C)CN5C(=O)[C@H]([C@H](O)CC(N)=O)NC(=O)[C@H]([C@H](O)[C@@H](O)c5ccc(O)c(OS(=O)(=O)O)c5)NC(=O)[C@@H]5C[C@@H](O)CN5C(=O)[C@H]([C@@H](C)O)NC4=O)cc3)no2)cc1 [Micafungin, micafungin] (X1-[Orn(4R-OH,5R-OH)]T[Hyp][hTyr(3S-OH,4S-OH,3'-OSO3H)][Gln(3R-OH)][Pro(3S-OH,4S-Me)]; lactam 1-C) |  |  |  |  |  |  |  |  |  |  |  |  | 7 to 13 | 5 | 3 | 10 to 17
